Test results: US20240239806A1, “COMPOUNDS, COMPOSITIONS AND METHODS OF TREATING DISORDERS” (Chengdu Anticancer Bioscience, Ltd., priority 2021, published 2024)

These compounds were tested on RPEMYC^H2B-GFP cells (assay: Phenotypic screening assay (mitotic arrest, polyploidy)). Details: 1 nM to 30 μM, read-out: Min. Effective conc. for Polyploidy (≥5%).
Format: cell-based
In short: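 RPE cells expressing MYC and H2B-EGFP treated with compound at 1 nM–30 μM; mitotic index scored at 24 h and polyploidy (DNA content) at 48 h by automated imaging, with reads at 24, 48 or 72 h. Hits show transient mitotic arrest followed by polyploid accumulation.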

Compound | minimal effective concentration
COc1cc(Oc2ccnc3ccccc23)cc(-n2cccn2)c1 [Compound 12, 4-(3-methoxy-5-(1H-pyrazol-1-yl)phenoxy)quinoline] | 0.001 to 1 µM
COc1cc(Oc2ccnc3ccc(F)cc23)cc(-n2cccn2)c1 [Compound 19, 6-fluoro-4-(3-methoxy-5-(1H-pyrazol-1-yl)phenoxy)quinoline] | 0.001 to 1 µM

Same assay, conditions: 1 nM to 30 μM, read-out: Mitotic Arrest (≥5%)

Compound | minimal effective concentration
COc1cc(Oc2ccnc3ccccc23)cc(-n2cccn2)c1 [Compound 12, 4-(3-methoxy-5-(1H-pyrazol-1-yl)phenoxy)quinoline] | 0.001 to 1 µM
COc1cc(Oc2ccnc3ccc(F)cc23)cc(-n2cccn2)c1 [Compound 19, 6-fluoro-4-(3-methoxy-5-(1H-pyrazol-1-yl)phenoxy)quinoline] | 0.001 to 1 µM

Same assay, conditions: 1 nM to 30 μM, read-out: Proliferative arrest (>50%)

Compound | IC50
COc1cc(Oc2ccnc3ccccc23)cc(-n2cccn2)c1 [Compound 12, 4-(3-methoxy-5-(1H-pyrazol-1-yl)phenoxy)quinoline] | 0.001 to 1 µM
COc1cc(Oc2ccnc3ccc(F)cc23)cc(-n2cccn2)c1 [Compound 19, 6-fluoro-4-(3-methoxy-5-(1H-pyrazol-1-yl)phenoxy)quinoline] | 0.001 to 1 µM

What follows are compounds tested on A549 (assay: MECP in cancer cell line). Details: Homo sapiens.
Format: cell-based
Procedure: (§1) Six lung cancer cell lines (NCI-H23, NCI-H460, NCI-H596, NCI-H2170, Calu-6 and A549), two colon cancer cell lines (HCT116 and SW460), one breast cancer cell line MDA-MB-231, one gastric cancer cell line NCI-N87, one prostate cancer cell line DU145, one cervical cancer cell line Hela, and one glioblastoma cell line T98G were obtained from ATCC. The T2 HCC cell line was derived from a mouse liver cancer model initiated by a transgene of MYC. All cell lines were cultured in DMEM (Gibco, Cleveland, TN, USA) supplemented with 5% fetal bovine serum (Gibco), penicillin (100 U/mL)—streptomycin (100 μg/mL) (Gibco, Cat. No. 15140-122), 2 mM L-glutamine (Gibco, 200 mM solution, Cat. No. 25030081), and 1 mM sodium pyruvate (Gibco, 100 mM solution, Cat. No. 11360070) at 37° C. in a humidified incubator that was maintained at 5% CO2.
(§2) We have previously developed a mechanism-informed phenotypic screening assay to identify novel antimitotic agents. Equipped with a prior understanding of the versatile functions of the chromosomal passenger protein (CPP) complex in orchestrating karyokinesis and cytokinesis, the screening assay is to score for phenotypes typically seen when the CPP complex is disabled. Specifically, the parameters for a positive hit are a temporary elevation of mitotic index (MI) at 24 hours of drug treatment and an accumulation of polyploid cells at 48 hours of drug treatment, indicative of mitotic arrest and cytokinetic failure respectively. These parameters exclude compounds that elicit only a prolonged arrest of cells in mitosis, a phenotype typically provoked by spindle toxins. The screening procedure is briefly summarized here. RPEMYC^H2B-GFP cells engineered to express a Histone 2B-EGFP fusion protein were passaged as batches of 96-well plates, 18-24 hours before exposure to the chemical compounds of the present disclosure at concentrations from 1 nM to 30 μM. At 24, 48 or 72 hours after initiation of treatment, cells were analyzed for either an arrest in mitosis or a change in DNA content by GE IN-Cell Analyzer 2000. As set forth in Table 2 below, a value of greater than or equal to 1 nM and less than or equal to 1.0 μM is marked “A”; a value greater than 1.00 μM and less than or equal to 10.0 μM is marked “B”; a value greater than 10.0 μM and less than or equal to 30.0 μM is marked “C”; and a value greater than 30.0 μM is marked “D.”

Compound | minimal effective concentration
COc1cc(Oc2ccnc3ccccc23)cc(-n2cccn2)c1 [Compound 12, 4-(3-methoxy-5-(1H-pyrazol-1-yl)phenoxy)quinoline] | 0.001 to 1 µM
COc1cc(Oc2ccnc3ccc(F)cc23)cc(-n2cccn2)c1 [Compound 19, 6-fluoro-4-(3-methoxy-5-(1H-pyrazol-1-yl)phenoxy)quinoline] | 0.001 to 1 µM

Each compound was assayed on HCT116 (assay: MECP in cancer cell line). Details: Homo sapiens, HCT-116.
Format: cell-based
Procedure: as §1, §2

Compound | minimal effective concentration
COc1cc(Oc2ccnc3ccccc23)cc(-n2cccn2)c1 [Compound 12, 4-(3-methoxy-5-(1H-pyrazol-1-yl)phenoxy)quinoline] | 0.001 to 1 µM
COc1cc(Oc2ccnc3ccc(F)cc23)cc(-n2cccn2)c1 [Compound 19, 6-fluoro-4-(3-methoxy-5-(1H-pyrazol-1-yl)phenoxy)quinoline] | 0.001 to 1 µM

Each compound was assayed on Hela (assay: MECP in cancer cell line). Details: Homo sapiens.
Format: cell-based
Procedure: as §1, §2

Compound | minimal effective concentration
COc1cc(Oc2ccnc3ccccc23)cc(-n2cccn2)c1 [Compound 12, 4-(3-methoxy-5-(1H-pyrazol-1-yl)phenoxy)quinoline] | 0.001 to 1 µM
COc1cc(Oc2ccnc3ccc(F)cc23)cc(-n2cccn2)c1 [Compound 19, 6-fluoro-4-(3-methoxy-5-(1H-pyrazol-1-yl)phenoxy)quinoline] | 0.001 to 1 µM

These compounds were tested on MDA-MB-231 (assay: MECP in cancer cell line). Details: Homo sapiens.
Format: cell-based
Procedure: as §1, §2

Compound | minimal effective concentration
COc1cc(Oc2ccnc3ccccc23)cc(-n2cccn2)c1 [Compound 12, 4-(3-methoxy-5-(1H-pyrazol-1-yl)phenoxy)quinoline] | 0.001 to 1 µM
COc1cc(Oc2ccnc3ccc(F)cc23)cc(-n2cccn2)c1 [Compound 19, 6-fluoro-4-(3-methoxy-5-(1H-pyrazol-1-yl)phenoxy)quinoline] | 0.001 to 1 µM

The compounds below were run on SW480 (assay: MECP in cancer cell line). Details: Homo sapiens.
Format: cell-based
Procedure: as §1, §2

Compound | minimal effective concentration
COc1cc(Oc2ccnc3ccccc23)cc(-n2cccn2)c1 [Compound 12, 4-(3-methoxy-5-(1H-pyrazol-1-yl)phenoxy)quinoline] | 0.001 to 1 µM
COc1cc(Oc2ccnc3ccc(F)cc23)cc(-n2cccn2)c1 [Compound 19, 6-fluoro-4-(3-methoxy-5-(1H-pyrazol-1-yl)phenoxy)quinoline] | 0.001 to 1 µM

Each compound was assayed on T2 HCC (assay: MECP in cancer cell line). Details: Mus musculus.
Format: cell-based
Procedure: as §1, §2

Compound | minimal effective concentration
COc1cc(Oc2ccnc3ccccc23)cc(-n2cccn2)c1 [Compound 12, 4-(3-methoxy-5-(1H-pyrazol-1-yl)phenoxy)quinoline] | 0.001 to 1 µM
COc1cc(Oc2ccnc3ccc(F)cc23)cc(-n2cccn2)c1 [Compound 19, 6-fluoro-4-(3-methoxy-5-(1H-pyrazol-1-yl)phenoxy)quinoline] | 0.001 to 1 µM

Each compound was assayed on NCI-H23 (assay: MECP in cancer cell line). Details: Homo sapiens.
Format: cell-based
Procedure: as §1, with “CO2. […]” for “CO2.”

Compound | minimal effective concentration
COc1cc(Oc2ccnc3ccccc23)cc(-n2cccn2)c1 [Compound 12, 4-(3-methoxy-5-(1H-pyrazol-1-yl)phenoxy)quinoline] | 0.001 to 1 µM
COc1cc(Oc2ccnc3ccc(F)cc23)cc(-n2cccn2)c1 [Compound 19, 6-fluoro-4-(3-methoxy-5-(1H-pyrazol-1-yl)phenoxy)quinoline] | 0.001 to 1 µM

What follows are compounds tested on NCI-N87 (assay: MECP in cancer cell line). Details: Homo sapiens.
Format: cell-based
Procedure: as §1, with “CO2. […]” for “CO2.”

Compound | minimal effective concentration
COc1cc(Oc2ccnc3ccccc23)cc(-n2cccn2)c1 [Compound 12, 4-(3-methoxy-5-(1H-pyrazol-1-yl)phenoxy)quinoline] | 0.001 to 1 µM
COc1cc(Oc2ccnc3ccc(F)cc23)cc(-n2cccn2)c1 [Compound 19, 6-fluoro-4-(3-methoxy-5-(1H-pyrazol-1-yl)phenoxy)quinoline] | 0.001 to 1 µM

These compounds were tested on A549 (assay: MTT assay of cellular proliferation). Details: Homo sapiens, 50% inhibition of cellular proliferation.
Format: cell-based
Procedure: as §1
(§3) The MTT assay measures cellular metabolic activity as a proxy for cell viability and involves the conversion of the water-soluble yellow dye MTT [3-(4,5-dimethylthiazol-2-yl)-2,5-diphenyltetrazolium bromide] into an insoluble purple formazan by the action of mitochondrial reductase. Formazan is then solubilized and its concentration is determined by measuring the optical density (OD) value at a wavelength of 570 nm. The value is in proportional to the number of live cells with excellent linearity up to ˜10^6 cells per well. The MTT assay was used to determine the EC50 value, the concentration of a compound that leads to 50% inhibition of cellular proliferation. Briefly, cells were split when growing to the mid-Log phase. Cells in 100 μL of culture medium were seeded into each well of 96-well microplates and cultivated for 15-24 hours to reach a confluence of 20-30% and were then exposed to drugs at concentrations ranging from 1 nM to 30 μM. At the endpoint, 20 μL of a MTT stock solution in DMSO (5 mg/mL) was added to each well that contains 100 μL of DMEM. The microplates were left in the cell culture incubator for 3-4 h before subjected to solubilization and determination of formazan at A570 in a microplate reader (BioTek ELX808iu). […] Therefore, these compounds might hold a broad utility in the treatment of a large variety of human malignancies.

Compound | EC50
COc1cc(Oc2ccnc3ccccc23)cc(-n2cccn2)c1 [Compound 12, 4-(3-methoxy-5-(1H-pyrazol-1-yl)phenoxy)quinoline] | 0.001 to 1 µM
COc1cc(Oc2ccnc3ccc(F)cc23)cc(-n2cccn2)c1 [Compound 19, 6-fluoro-4-(3-methoxy-5-(1H-pyrazol-1-yl)phenoxy)quinoline] | 0.001 to 1 µM

What follows are compounds tested on HCT116 (assay: MTT assay of cellular proliferation). Details: Homo sapiens, HCT-116, 50% inhibition of cellular proliferation.
Format: cell-based
Procedure: as §1, §3

Compound | EC50
COc1cc(Oc2ccnc3ccccc23)cc(-n2cccn2)c1 [Compound 12, 4-(3-methoxy-5-(1H-pyrazol-1-yl)phenoxy)quinoline] | 0.001 to 1 µM
COc1cc(Oc2ccnc3ccc(F)cc23)cc(-n2cccn2)c1 [Compound 19, 6-fluoro-4-(3-methoxy-5-(1H-pyrazol-1-yl)phenoxy)quinoline] | 0.001 to 1 µM

These compounds were tested on Hela (assay: MTT assay of cellular proliferation). Details: Homo sapiens, 50% inhibition of cellular proliferation.
Format: cell-based
Procedure: as §1, §3

Compound | EC50
COc1cc(Oc2ccnc3ccccc23)cc(-n2cccn2)c1 [Compound 12, 4-(3-methoxy-5-(1H-pyrazol-1-yl)phenoxy)quinoline] | 0.001 to 1 µM
COc1cc(Oc2ccnc3ccc(F)cc23)cc(-n2cccn2)c1 [Compound 19, 6-fluoro-4-(3-methoxy-5-(1H-pyrazol-1-yl)phenoxy)quinoline] | 0.001 to 1 µM

The compounds below were run on MDA-MB-231 (assay: MTT assay of cellular proliferation). Details: Homo sapiens; MDA-MB-231, MTT, 50% inhibition of cellular proliferation.
Format: cell-based
Procedure: as §1, §3

Compound | EC50
COc1cc(Oc2ccnc3ccccc23)cc(-n2cccn2)c1 [Compound 12, 4-(3-methoxy-5-(1H-pyrazol-1-yl)phenoxy)quinoline] | 0.001 to 1 µM
COc1cc(Oc2ccnc3ccc(F)cc23)cc(-n2cccn2)c1 [Compound 19, 6-fluoro-4-(3-methoxy-5-(1H-pyrazol-1-yl)phenoxy)quinoline] | 0.001 to 1 µM

These compounds were tested on NCI-H23 (assay: MTT assay of cellular proliferation). Details: Homo sapiens, 50% inhibition of cellular proliferation.
Format: cell-based
Procedure: as §1, §3

Compound | EC50
COc1cc(Oc2ccnc3ccccc23)cc(-n2cccn2)c1 [Compound 12, 4-(3-methoxy-5-(1H-pyrazol-1-yl)phenoxy)quinoline] | 0.001 to 1 µM
COc1cc(Oc2ccnc3ccc(F)cc23)cc(-n2cccn2)c1 [Compound 19, 6-fluoro-4-(3-methoxy-5-(1H-pyrazol-1-yl)phenoxy)quinoline] | 0.001 to 1 µM

What follows are compounds tested on NCI-N87 (assay: MTT assay of cellular proliferation). Details: Homo sapiens, 50% inhibition of cellular proliferation.
Format: cell-based
Procedure: as §1, §3

Compound | EC50
COc1cc(Oc2ccnc3ccccc23)cc(-n2cccn2)c1 [Compound 12, 4-(3-methoxy-5-(1H-pyrazol-1-yl)phenoxy)quinoline] | 0.001 to 1 µM
COc1cc(Oc2ccnc3ccc(F)cc23)cc(-n2cccn2)c1 [Compound 19, 6-fluoro-4-(3-methoxy-5-(1H-pyrazol-1-yl)phenoxy)quinoline] | 0.001 to 1 µM

These compounds were tested on SW480 (assay: MTT assay of cellular proliferation). Details: Homo sapiens, 50% inhibition of cellular proliferation.
Format: cell-based
Procedure: as §1, §3

Compound | EC50
COc1cc(Oc2ccnc3ccccc23)cc(-n2cccn2)c1 [Compound 12, 4-(3-methoxy-5-(1H-pyrazol-1-yl)phenoxy)quinoline] | 0.001 to 1 µM
COc1cc(Oc2ccnc3ccc(F)cc23)cc(-n2cccn2)c1 [Compound 19, 6-fluoro-4-(3-methoxy-5-(1H-pyrazol-1-yl)phenoxy)quinoline] | 1 to 10 µM

The compounds below were run on T2 HCC (assay: MTT assay of cellular proliferation). Details: Mus musculus, 50% inhibition of cellular proliferation.
Format: cell-based
Procedure: as §1, §3

Compound | EC50
COc1cc(Oc2ccnc3ccccc23)cc(-n2cccn2)c1 [Compound 12, 4-(3-methoxy-5-(1H-pyrazol-1-yl)phenoxy)quinoline] | 0.001 to 1 µM
COc1cc(Oc2ccnc3ccc(F)cc23)cc(-n2cccn2)c1 [Compound 19, 6-fluoro-4-(3-methoxy-5-(1H-pyrazol-1-yl)phenoxy)quinoline] | 0.001 to 1 µM
